From patent US20250250229A1, “ARYLTHIO DERIVATIVES WITH PHARMACOLOGICAL ACTIVITY” (IRIDEA S.R.L., priority 2022, published 2025)

How the values were obtained:
rat aorta rings = assay: Ex vivo assay of anti-angiogenic activity on rat aorta rings (VEGF-induced sprouting); format: cell-based; conditions: VEGF 30 ng/mL, compound 100 μM, counted after 6 days' incubation; VEGF alone 17 ± 4
Procedure: Ex Vivo Assays of Anti-Angiogenic Activity on Rat Aorta Rings
Thoracic aortas obtained from 5- to 10-week-old male rats were cut into rings measuring about 1 mm. The rings were placed on the base of a 24-well plate (positioning the luminal axis parallel to the base of the well), and incubated with a fibrin-polymerising solution. After 5 min, VEGF (30 ng/mL) was added to the wells in an appropriate culture medium in the presence or absence of the compounds according to the invention at the concentration of 100 μM. The medium was changed three times a week as from day 3. The angiogenic response was measured by counting the number of new vessels that sprouted over time (Table 1). The endothelial filaments were counted after 6 days' incubation.

[1] = system: neutrophil and macrophage recruitment; assay: In vivo anti-inflammatory activity test, P. aeruginosa RP73 lung infection, BALF cell analysis; parameters: species or system C57Bl/6N mice; conditions: 12 mg/kg subcutaneous daily, BALF six days after infection, compared with carrier only
Procedure: In Vivo Anti-Inflammatory Activity Test Immunocompetent C57Bl/6N male mice (8-10 weeks) were infected with strains of P. aeruginosa RP73 (4-6×10^5 CFU, Colony Forming Units), incorporated in agar microbeads. The microbeads were prepared by following the procedures described in the literature (Bayes H K, Ritchie N, Irvine S, Evans T J. A murine model of early Pseudomonas aeruginosa lung disease with transition to chronic infection. Sci Rep. 2016 Nov. 2; 6:35838. doi: 10.1038/srep35838), and they were administered to the mice by intratracheal injection. Subcutaneous administration of the compounds according to the invention at the concentration of 12 mg/kg, or of the carrier, was conducted on the mice 18 hours before inoculation of the bacterium, and repeated daily for 6 days. The general state of health of the mice was analysed once or twice a day throughout the duration of the experiment. Six days after infection, the mice were euthanised by carbon dioxide inhalation. Bronchoalveolar lavage fluid analysis (BALF) indicated a significant reduction in the number of neutrophils in the treated mice compared with those treated with the carrier only.

[2] = system: chorioallantoic membrane (CAM); assay: In vivo assay on chorioallantoic membrane (CAM), VEGF165-induced neovascularisation; parameters: species or system hen; conditions: day 14, VEGF165 alone = 100
Procedure: In Vivo Assays on Chorioallantoic Membrane (CAM)
42 fertilised hens' eggs were disinfected with a 20% ethanol solution and incubated at a temperature of 37-38° C. and a humidity of 40-60% in a rotary egg incubator. The eggs were positioned horizontally and incubated for the next 11 days to promote embryo development.
On day 11, the position of the CAM was identified by candling for 36 eggs, the air chamber was removed, and slits made in the shell in order to position sterile paper filters saturated with the effectors at different concentrations (V=2.5 uL) on the CAM. On day 14, CAMs were photographed with a stereomicroscope (Carl Zeiss Vision GmbH). Quantitative analysis was conducted (count of vessels leading from the filter) by skeletonizing the images and using AngioTool64 0.6a software, and the percentage of neovascularisation at the various concentrations of effectors was determined (Table 2).

[3] = VEGF165 0.1 ug + compound 0.0001 ug on filter
[4] = VEGF165 0.1 ug + compound 0.001 ug on filter
[5] = VEGF165 0.1 ug + compound 0.01 ug on filter
[6] = VEGF165 0.1 ug + compound 0.1 ug on filter
[7] = VEGF165 0.1 ug + compound 1 ug on filter

Compound | Endothelial filaments (standardised for the number of rings) (rat aorta rings) | Macrophages (%) [1] | Neutrophils (%) [1] | Total cells (%) [1] | Vascularisation (%) [2, 3] | Vascularisation (%) [2, 4] | Vascularisation (%) [2, 5] | Vascularisation (%) [2, 6] | Vascularisation (%) [2, 7]
CC(C)(C)c1cc(NC(=O)CCCN=C(N)N)c(SCCc2ccccc2)c(NC(=O)CCCN=C(N)N)c1 [IRI-N-19025, N,N′-(5-(tert-butyl)-2-(phenethylthio)-1,3-phenylene)bis(4-((diaminomethylene)amino)butanamide)] | 1.9 ± 1.1 | −8 ± 5% | −55 ± 9% | −50 ± 10% |  |  |  |  | 
CC(C)(C)c1cc(NC(=O)CCN=C(N)N)c(SCCc2ccccc2)c(NC(=O)CCN=C(N)N)c1 [IRI-N-19001, N,N′-(5-(tert-butyl)-2-(phenethylthio)-1,3-phenylene)bis(3-((diaminomethylene)amino)propanamide)] | 1.0 ± 0.4 | −10 ± 3% | −61 ± 5% | −55 ± 12% | 45% | 37% | 33% | 26% | 10%
CC(C)(C)c1cc(NC(=O)CCN=C(N)N)c(SCc2ccc3ccccc3c2)c(NC(=O)CCN=C(N)N)c1 [IRI-N-19004, N,N′-(5-(tert-butyl)-2-((naphthalen-2-ylmethyl)thio)-1,3-phenylene)bis(3-((diaminomethylene)amino)propanamide)] | 1.2 ± 0.5 | −5 ± 4% | −58 ± 8% | −56 ± 8% | 38% | 33% | 24% | 19% | 8%
N,N′-(2-(benzylthio)-5-(tert-butyl)-1,3-(phenylene)bis(3-((diaminomethylene)amino) propanamide) [IRI-N-19002] | 1.4 ± 0.5 | −9 ± 4% | −60 ± 6% | −54 ± 9% | 48% | 42% | 36% | 31% | 13%
